Source: ChEMBL document CHEMBL3603790, “2- and 3-Fluoro-3-deazaneplanocins, 2-fluoro-3-deazaaristeromycins, and 3-methyl-3-deazaneplanocin: Synthesis and antiviral properties” (Bioorg Med Chem, 2015)
Calls of active or inactive are those of the source. No cut-off for these calls is given here.

Legend:
[1] = Cytotoxicity against African green monkey Vero 76 cells relative to control; assay type: cell-based; conditions: chlorocebus sabaeus
[2] = test system: Influenza B virus; test: Antiviral activity against Influenza B virus infected in MDCK cells after 3 days by neutral red dye-based plaque reduction assay; assay type: functional, organism-based; conditions: 72 h
[3] = test system: Tacaribe virus; test: Antiviral activity against Tacaribe virus infected in African green monkey Vero 76 cells after 3 days by neutral red dye-based plaque reduction assay; assay type: functional, organism-based; conditions: Mammarenavirus tacaribeense; for IC50: 72 h
[4] = test system: Rift Valley fever virus; test: Antiviral activity against Rift Valley fever virus infected in African green monkey Vero 76 cells after 3 days by neutral red dye-based plaque reduction assay; assay type: functional, organism-based; conditions: for IC50: 72 h
[5] = Cytotoxicity against African green monkey Vero 76 cells; assay type: cell-based; conditions: chlorocebus sabaeus; for CC50: Vero 76 cells
[6] = Cytotoxicity against MDCK cells relative to control; assay type: cell-based, Canis lupus familiaris; conditions: dog
[7] = test system: Measles morbillivirus; test: Antiviral activity against Measles virus infected in African green monkey CV1 cells after 3 days by neutral red dye-based plaque reduction assay; assay type: functional, organism-based; conditions: CV-1, 72 h
[8] = Cytotoxicity against African green monkey CV1 cells; assay type: cell-based, CV-1; conditions: chlorocebus aethiops
[9] = Cytotoxicity against HFF; assay type: cell-based; conditions: human, HFF cells
[10] = test system: Human betaherpesvirus 5; test: Antiviral activity against HCMV infected in HFF after 3 days by neutral red dye-based plaque reduction assay; assay type: functional, organism-based; conditions: Human betaherpesvirus 5, 72 h
[11] = Cytotoxicity against human […] cells; assay type: cell-based
[12] = test system: Hepatitis B virus; test: Antiviral activity against HBV infected in human HepG22.2.15 cells after 3 days by neutral red dye-based plaque reduction assay; assay type: functional, organism-based; conditions: HepG2 2.2.15, 72 h
[13] = test system: unidentified adenovirus; test: Antiviral activity against Adenovirus infected in human A549 cells after 3 days by neutral red dye-based plaque reduction assay; assay type: functional, organism-based
[14] = test system: HeLa; test: Cytotoxicity against human HeLa cells; assay type: cell-based
[15] = test system: HEL; test: Cytotoxicity against HEL cells; assay type: cell-based; conditions: human
[16] = Selectivity index, ratio of CC50 for MDCK cells to IC50 for Influenza A virus H5N1 virus; assay type: functional
[17] = test system: Respiratory syncytial virus; test: Antiviral activity against Respiratory syncytial virus infected in monkey MA104 cells after 3 days by neutral red dye-based plaque reduction assay; assay type: functional, organism-based
[18] = test system: MA104; test: Antiviral activity against Parainfluenza virus infected in monkey MA104 cells after 3 days by neutral red dye-based plaque reduction assay; assay type: functional, cell-based; conditions: Paramyxoviridae
[19] = test system: A549; test: Cytotoxicity against human A549 cells; assay type: cell-based
[20] = test system: West Nile virus; test: Antiviral activity against WNV infected in African green monkey Vero 76 cells after 3 days by neutral red dye-based plaque reduction assay; assay type: functional, organism-based
[21] = test system: Influenza A virus; test: Antiviral activity against Influenza A virus H3N2 infected in MDCK cells after 3 days by neutral red dye-based plaque reduction assay; assay type: functional, organism-based
[22] = Cytotoxicity against monkey MA104 cells; assay type: cell-based, Macaca mulatta; conditions: rhesus monkey
[23] = Inhibition of rabbit erythrocytic AdoHcy hydrolase using AdoHcy as substrate assessed as formation of L-homocysteine preincubated for 5 mins followed by substrate addition measured after 1 hr by thiol quantitation reagent-based assay; design: species or system Oryctolagus cuniculus
[24] = Selectivity index, ratio of CC50 for African green monkey Vero cells to IC50 for Dengue virus; assay type: functional
[25] = Cytotoxicity against African green monkey Vero cells; assay type: cell-based; conditions: chlorocebus sabaeus, Vero cells
[26] = test system: Cowpox virus; test: Antiviral activity against Cowpox virus infected in HFF after 3 days by neutral red dye-based plaque reduction assay; assay type: functional, organism-based
[27] = Selectivity index, ratio of CC50 for HFF to IC50 for HCMV; assay type: functional
[28] = Cytotoxicity against human HeLa Ohio-1 cells; assay type: cell-based
[29] = test system: Dengue virus; test: Antiviral activity against Dengue virus infected in African green monkey Vero cells after 3 days by neutral red dye-based plaque reduction assay; assay type: functional, organism-based; conditions: for IC50: 72 h
[30] = Selectivity index, ratio of CC50 for African green monkey Vero 76 cells to IC50 for Rift Valley fever virus; assay type: functional
[31] = test system: Venezuelan equine encephalitis virus; test: Antiviral activity against Venezuelan equine encephalitis virus infected in African green monkey Vero cells after 3 days by neutral red dye-based plaque reduction assay; assay type: functional, organism-based
[32] = test system: Respiratory syncytial virus; test: Antiviral activity against Respiratory syncytial virus infected in human HeLa cells after 3 days by neutral red dye-based plaque reduction assay; assay type: functional, organism-based
[33] = test system: Influenza A virus; test: Antiviral activity against Influenza A virus H5N1 infected in MDCK cells after 3 days by neutral red dye-based plaque reduction assay; assay type: functional, organism-based; conditions: 72 h
[34] = test system: Vaccinia virus; test: Antiviral activity against Vaccinia virus infected in HEL cells after 3 days by neutral red dye-based plaque reduction assay; assay type: functional, organism-based; conditions: Orthopoxvirus vaccinia
[35] = Selectivity index, ratio of CC50 for MDCK cells to IC50 for Influenza B virus; assay type: functional
[36] = Cytotoxicity against African green monkey Vero cells relative to control; assay type: cell-based; conditions: chlorocebus sabaeus
[37] = test system: Yellow fever virus; test: Antiviral activity against Yellow fever virus infected in African green monkey Vero cells after 3 days by neutral red dye-based plaque reduction assay; assay type: functional, organism-based; conditions: 72 h
[38] = Cytotoxicity against African green monkey Vero E6 cells; assay type: cell-based; conditions: chlorocebus sabaeus
[39] = Cytotoxicity against MDCK cells; assay type: cell-based, Canis lupus familiaris; conditions: dog, MDCK cells
[40] = test system: Influenza A virus; test: Antiviral activity against Influenza A virus H1N1 infected in MDCK cells after 3 days by neutral red dye-based plaque reduction assay; assay type: functional, organism-based
[41] = test system: SARS-CoV; test: Antiviral activity against SARS coronavirus infected in African green monkey Vero E6 cells after 3 days by neutral red dye-based plaque reduction assay; assay type: functional, organism-based; conditions: Severe acute respiratory syndrome-related coronavirus
[42] = test system: Enterovirus; test: Antiviral activity against Rhinovirus infected in human HeLa Ohio-1 cells after 3 days by neutral red dye-based plaque reduction assay; assay type: functional, organism-based
[43] = Selectivity index, ratio of CC50 for African green monkey Vero 76 cells to IC50 for Tacaribe virus; assay type: functional
[44] = Selectivity index, ratio of CC50 for African green monkey Vero cells to IC50 for Yellow fever virus; assay type: functional
[45] = test system: Hepatitis C virus; test: Antiviral activity against Hepatitis C virus infected in human Ava5 cells after 3 days by neutral red dye-based plaque reduction assay; assay type: functional, organism-based; conditions: Hepacivirus hominis
[46] = Selectivity index, ratio of CC50 for African green monkey CV1 cells to IC50 for Measles virus; assay type: functional, CV-1
[47] = Cytotoxicity against human Ava5 cells; assay type: cell-based

Row | SMILES | CC50 [1] | IC50 [2] | IC50 [3] | IC50 [4] | CC50 [5] | CC50 [6] | CC50 [9] | IC50 [10] | Activity [13] | Activity [14] | Activity [15] | Activity [17] | Activity [20] | Activity [22] | IC50 [23] | CC50 [25] | Activity [31] | Activity [32] | Activity [34] | IC50 [37] | other results
1 | NC(=O)c1ncn([C@@H]2O[C@H](CO)[C@@H](O)[C@H]2O)n1 [RIBAVIRIN] | > 1000 µM | 9 µM | 26.7 µM | 37.3 µM | > 1000 µM | > 100 µM |  |  |  |  |  |  |  |  |  |  |  |  |  |  | 
2 | Nc1cc2nc[nH]c2c(=O)[nH]1 [DEZAGUANINE] |  |  |  |  |  |  |  |  |  |  |  |  |  |  |  |  |  |  |  |  | IC50 [7]: 4.1 µM; CC50 [8]: 250 µM
3 | Nc1nc2c(ncn2COC(CO)CO)c(=O)[nH]1 [GANCICLOVIR] |  |  |  |  |  |  | > 100 µM | 3.6 µM |  |  |  |  |  |  |  |  |  |  |  |  | 
4 | Nc1ccn([C@@H]2CS[C@H](CO)O2)c(=O)n1 [LAMIVUDINE] |  |  |  |  |  |  |  |  |  |  |  |  |  |  |  |  |  |  |  |  | CC50 [11]: 2180 µM; IC50 [12]: 0.039 µM
5 | Nc1ncc(F)c2c1ncn2[C@@H]1C=C(CO)[C@@H](O)[C@H]1O | 114 µM | < 0.36 µM | < 0.36 µM | 6.4 µM | 36 µM | > 357 µM | > 300 µM | 0.3 µM | inactive | Non-toxic | Non-toxic | inactive | inactive | Non-toxic | 0.0068 µM | 224 µM | inactive | inactive | inactive | > 224 µM | Ratio CC50/IC50 [16]: 34; Activity [18]: inactive; Activity [19]: Non-toxic; Activity [21]: inactive; Ratio CC50/IC50 [24]: 5; Activity [26]: inactive; Ratio CC50/IC50 [27]: > 1040; Activity [28]: Non-toxic; IC50 [29]: 7.1 µM; Ratio CC50/IC50 [30]: 5.6; IC50 [33]: 1 µM; Ratio CC50/IC50 [35]: >1000; CC50 [36]: 35.7 µM; Activity [38]: Non-toxic; CC50 [39]: 32.5 µM; Activity [40]: inactive; Activity [41]: inactive; Activity [42]: inactive; Ratio CC50/IC50 [43]: >317
6 | Nc1ncc(F)c2c1ncn2[C@@H]1C=C(CCO)[C@@H](O)[C@H]1O | 190 µM | 1 µM | < 0.34 µM | 1.3 µM | 3.4 µM | > 340 µM | > 300 µM | 5.1 µM | inactive | Non-toxic | Non-toxic | inactive | inactive | Non-toxic | 0.145 µM | > 340 µM | inactive | inactive | inactive | 1.5 µM | Ratio CC50/IC50 [16]: >2.4; Activity [18]: inactive; Activity [19]: Non-toxic; Activity [21]: inactive; Ratio CC50/IC50 [24]: 7.3; Activity [26]: inactive; Ratio CC50/IC50 [27]: 759; Activity [28]: Non-toxic; IC50 [29]: 15 µM; Ratio CC50/IC50 [30]: 2.6; IC50 [33]: 139 µM; Ratio CC50/IC50 [35]: >340; Ratio CC50/IC50 [44]: >240; CC50 [36]: 109 µM; Activity [38]: Non-toxic; CC50 [39]: > 340 µM; Activity [40]: inactive; Activity [41]: inactive; Activity [42]: inactive; Ratio CC50/IC50 [43]: >560
7 | Cc1cnc(N)c2ncn([C@@H]3C=C(CO)[C@@H](O)[C@H]3O)c12 | 83.3 µM | 1.1 µM | 1.2 µM | > 36 µM | 36 µM | > 362 µM | 247 µM | 6.4 µM | inactive | Non-toxic | Non-toxic | inactive | inactive | Non-toxic | 0.041 µM | > 362 µM | inactive | inactive | inactive | 3.6 µM | Ratio CC50/IC50 [16]: 3.3; Activity [18]: inactive; Activity [19]: Non-toxic; Activity [21]: inactive; Activity [26]: inactive; Ratio CC50/IC50 [27]: 38.6; Activity [28]: Non-toxic; IC50 [29]: > 228 µM; IC50 [33]: 76 µM; Ratio CC50/IC50 [35]: >320; Ratio CC50/IC50 [44]: >100; CC50 [36]: 228 µM; Activity [38]: Non-toxic; CC50 [39]: 250 µM; Activity [40]: inactive; Activity [41]: inactive; Activity [42]: inactive; Ratio CC50/IC50 [43]: 72
8 | Nc1nc(F)cc2c1ncn2[C@@H]1C[C@H](CO)[C@@H](O)[C@H]1O |  |  |  |  |  |  |  |  |  | Non-toxic | Non-toxic | inactive | inactive | Non-toxic | 3.32 µM | > 355 µM | inactive | inactive | inactive | 2.1 µM | Activity [45]: inactive; IC50 [7]: 9.6 µM; CC50 [8]: > 355 µM; Ratio CC50/IC50 [46]: >37; Activity [47]: Non-toxic; Activity [29]: inactive; Activity [3]: inactive; Activity [4]: inactive; Activity ([5]; vero 76): Non-toxic; Ratio CC50/IC50 [44]: >170
